Results reported in ChEMBL document CHEMBL4152218, “Novel hydrazide-hydrazone and amide substituted coumarin derivatives: Synthesis, cytotoxicity screening, microarray, radiolabeling and in vivo pharmacokinetic studies” (Eur J Med Chem, 2018).
The source made the active and inactive calls. The rule behind the calls is not given here.

Experiments:
[1] = Selectivity index, ratio of IC50 for hTERT-RPE1 cells to IC50 for human HepG2 cells; format: toxicity; settings: hTERT-RPE1 cells versus HepG2 cells, read-out: Ratio IC50
[2] = Selectivity index, ratio of IC50 for hTERT-RPE1 cells to IC50 for human CCRF-CEM cells; format: toxicity; settings: hTERT-RPE1 cells versus CCRF-CEM cells, read-out: Ratio IC50
HepG2 [3] = experiment: Effect on CPB2 gene expression in human HepG2 cells at IC50 after 48 hrs by microarray analysis; format: functional, cell-based
HepG2 [4] = experiment: Effect on GRP gene expression in human HepG2 cells at IC50 after 48 hrs by microarray analysis; format: functional, cell-based
HepG2 [5] = experiment: Effect on LANCL 1 gene expression in human HepG2 cells at IC50 after 48 hrs by microarray analysis; format: functional, cell-based
HepG2 [6] = experiment: Effect on TMEM132D gene expression in human HepG2 cells at IC50 after 48 hrs by microarray analysis; format: functional, cell-based
PANC-1 [7] = experiment: Effect on ABCB1 gene expression in human PANC1 cells at IC50 after 48 hrs by microarray analysis; format: functional, cell-based
PANC-1 [8] = experiment: Effect on ABCB4 gene expression in human PANC1 cells at IC50 after 48 hrs by microarray analysis; format: functional, cell-based
PANC-1 [9] = experiment: Effect on HEATR3 gene expression in human PANC1 cells at IC50 after 48 hrs by microarray analysis; format: functional, cell-based
PANC-1 [10] = experiment: Effect on JMJD2B gene expression in human PANC1 cells at IC50 after 48 hrs by microarray analysis; format: functional, cell-based
PANC-1 [11] = experiment: Effect on NSBP1 gene expression in human PANC1 cells at IC50 after 48 hrs by microarray analysis; format: functional, cell-based
PANC-1 [12] = experiment: Effect on NUCKS1 gene expression in human PANC1 cells at IC50 after 48 hrs by microarray analysis; format: functional, cell-based
PANC-1 [13] = experiment: Effect on RNF151 gene expression in human PANC1 cells at IC50 after 48 hrs by microarray analysis; format: functional, cell-based
PANC-1 [14] = experiment: Effect on UPP1 gene expression in human PANC1 cells at IC50 after 48 hrs by microarray analysis; format: functional, cell-based
[15] = Inhibition of GST (unknown origin) using CDNB as substrate by spectrophotometric analysis; settings: human
hTERT-BJ = experiment: Cytotoxicity against hTERT-BJ cells at 50 uM after 48 hrs by resazurin dye-based fluorescence assay relative to control; format: cell-based; settings: human
TERT-RPE1 = experiment: Cytotoxicity against hTERT-RPE1 cells at 6.25 uM after 48 hrs by resazurin dye-based fluorescence assay relative to control; format: cell-based; settings: human, tert-rpe1, 48 h

inhibition (INH) [15]: Dose-dependent effect
Compound: O=C(N/N=C/c1cc2ccccc2nc1Cl)c1cc2cc(Br)ccc2oc1=O
selectivity ratio [1]: > 5.31 | selectivity ratio [2]: > 6.71 | Activity (HepG2 [3]): Active | Activity (HepG2 [4]): Active | Activity (HepG2 [5]): Active | Activity (HepG2 [6]): Active | Activity (PANC-1 [7]): Active | Activity (PANC-1 [8]): Active | Activity (PANC-1 [9]): Active | Activity (PANC-1 [10]): Active | Activity (PANC-1 [11]): Active | Activity (PANC-1 [12]): Active | Activity (PANC-1 [13]): Active | Activity (PANC-1 [14]): Active | Activity (hTERT-BJ): 5.18% | Activity (TERT-RPE1): 0.94%
